Key:
PGE2 = assay: Urinary PGE2 production levels; assay type: in vivo, rat; conditions: rats, oral, two weeks; naproxcinod 14.5 mg/kg, naproxen 10 mg/kg
[1] = Urine flow rate during water-load; assay type: in vivo, rat; conditions: water-load (90 min) compared to baseline; rats, oral, two weeks
Protocol: After obtaining a set of baseline images, hypotonic glucose-saline (0.25% NaCl, 0.5% glucose) at 1.5 ml/100 g body weight/hr was infused intravenously via the femoral catheter for 2 hours to induce the water-diuresis.

SMILES	Urinary PGE2 production levels (in words) (PGE2)	Increase in urine flow during water-load (in words) [1]
COc1ccc2cc([C@H](C)C(=O)OCCCCO[N+](=O)[O-])ccc2c1 [Naproxcinod, 4-(Nitrooxy)-butyl-(S)-2-(6-methoxy-2-naphthyl)-propanoate]	reduced	substantially less increase
COc1ccc2cc([C@H](C)C(=O)O)ccc2c1 [Naproxen, naproxen]	reduced	substantially less increase
